Data reported in US5919771A, “Urea and thiourea derivatives of glycopeptides” (Eli Lilly and Company, priority 1998, dated 1999).

How the values were obtained:
Type in all cases: cell-based
[1] = test system: Staphylococcus epidermidis 270; assay: MIC, standard broth micro-dilution assay, SE 270
Experimental: (§1) The antibacterial efficacy of the present compounds is illustrated by Table II. The minimal inhibitory concentrations (MICs) were determined using a standard broth micro-dilution assay.

[2] = test system: Staphylococcus haemolyticus 105; assay: MIC, standard broth micro-dilution assay, SH 105
Experimental: as §1

[3] = test system: Staphylococcus aureus 489; assay: MIC, standard broth micro-dilution assay, SA 489
Experimental: as §1

[4] = test system: Staphylococcus aureus 446; assay: MIC, standard broth micro-dilution assay, SA 446
Experimental: as §1

[5] = test system: Streptococcus pneumoniae P1; assay: MIC, standard broth micro-dilution assay, SPN P1
Experimental: as §1

[6] = test system: Staphylococcus aureus 447; assay: MIC, standard broth micro-dilution assay, SA 447
Experimental: as §1

[7] = test system: Enterococcus faecium and faecalis (SENSITIVE); conditions: geometric mean of 4-6 isolates
Experimental: as §1

[8] = test system: Enterococcus faecium and faecalis (RESISTANT); conditions: geometric mean of 4-6 isolates
Experimental: as §1

[9] = test system: Staphylococcus haemolyticus 415; assay: MIC, standard broth micro-dilution assay, SH 415
Experimental: as §1

[10] = test system: Streptococcus pyogenes C203; assay: MIC, standard broth micro-dilution assay, SPY C203
Experimental: as §1

SMILES | Minimal Inhibitory Concentration (MIC) SE 270 [1] | Minimal Inhibitory Concentration (MIC) SH 105 [2] | Minimal Inhibitory Concentration (MIC) SA 489 [3] | Minimal Inhibitory Concentration (MIC) SA 446 [4] | Minimal Inhibitory Concentration (MIC) SPN P1 [5] | Minimal Inhibitory Concentration (MIC) SA 447 [6] | Minimal Inhibitory Concentration (MIC) SENSITIVE [7] | Minimal Inhibitory Concentration (MIC) RESISTANT [8] | Minimal Inhibitory Concentration (MIC) SH 415 [9] | Minimal Inhibitory Concentration (MIC) SPY C203 [10]
CC(C)CC(C(=O)NC1C(=O)NC(CC(N)=O)C(=O)NC2C(=O)NC3C(=O)NC(C(=O)NC(C(=O)O)c4cc(O)cc(O)c4-c4cc3ccc4O)C(OC3CC(C)(N)C(O)C(C)O3)c3ccc(c(Cl)c3)Oc3cc2cc(c3OC2OC(CO)C(O)C(O)C2OC2CC(C)(N)C(O)C(C)O2)Oc2ccc(cc2Cl)C1O)N(C)C(=S)Nc1cccc2ccccc12 (stereo not shown) [Example 5, N^LEU -(1-NAPHTHYLTHIOCARBAMOYL)A82846B] | 32 | 64 | > 64 | 8 | 1 | 8 | 9.5 | > 128 | > 64 | 0.5
CC(C)CC(C(=O)NC1C(=O)NC(CC(N)=O)C(=O)NC2C(=O)NC3C(=O)NC(C(=O)NC(C(=O)O)c4cc(O)cc(O)c4-c4cc3ccc4O)C(OC3CC(C)(N)C(O)C(C)O3)c3ccc(c(Cl)c3)Oc3cc2cc(c3OC2OC(CO)C(O)C(O)C2OC2CC(C)(NCc3ccc(Cl)cc3)C(O)C(C)O2)Oc2ccc(cc2Cl)C1O)N(C)C(=S)Nc1cccc2ccccc12 (stereo not shown) [Example 6, N^LEU -(1-NAPHTHYLTHIOCARBAMOYL)-N^DISACC -(p-CHLOROBENZYL)A82846B] | 64 | 4 | 16 | 2 | ≤ 0.06 | 4 | 5 | 128 | 8 | ≤ 0.06
CC(C)CC(C(=O)NC1C(=O)NC(CC(N)=O)C(=O)NC2C(=O)NC3C(=O)NC(C(=O)NC(C(=O)O)c4cc(O)cc(O)c4-c4cc3ccc4O)C(OC3CC(C)(N)C(O)C(C)O3)c3ccc(c(Cl)c3)Oc3cc2cc(c3OC2OC(CO)C(O)C(O)C2OC2CC(C)(NCc3ccc(Oc4ccccc4)cc3)C(O)C(C)O2)Oc2ccc(cc2Cl)C1O)N(C)C(=S)Nc1cccc2ccccc12 (stereo not shown) [Example 7, N^LEU -(1-NAPHTHYLTHIOCARBAMOYL)-N^DISACC -(p-PHENOXYBENZYL)A82846B] | 0.5 | 4 | 2 | 4 | ≤ 0.06 | 1 | 3 | 19 | 2 | 0.25
CC(C)CC(C(=O)NC1C(=O)NC(CC(N)=O)C(=O)NC2C(=O)NC3C(=O)NC(C(=O)NC(C(=O)O)c4cc(O)cc(O)c4-c4cc3ccc4O)C(OC3CC(C)(N)C(O)C(C)O3)c3ccc(c(Cl)c3)Oc3cc2cc(c3OC2OC(CO)C(O)C(O)C2OC2CC(C)(NCc3ccc(Cl)cc3)C(O)C(C)O2)Oc2ccc(cc2Cl)C1O)N(C)C(=S)Nc1ccc(Cl)cc1 (stereo not shown) [Example 12, N^LEU -((p-CHLOROPHENYL)-THIOCARBAMOYL)-N^DISACC -(p-CHLOROBENZYL)A82846B] | 1 | 2 | 1 | 4 | ≤ 0.06 | 1 | 3.5 | 128 | 4 | ≤ 0.06
COc1ccc(NC(=S)N(C)C(CC(C)C)C(=O)NC2C(=O)NC(CC(N)=O)C(=O)NC3C(=O)NC4C(=O)NC(C(=O)NC(C(=O)O)c5cc(O)cc(O)c5-c5cc4ccc5O)C(OC4CC(C)(N)C(O)C(C)O4)c4ccc(c(Cl)c4)Oc4cc3cc(c4OC3OC(CO)C(O)C(O)C3OC3CC(C)(NCc4ccc(Cl)cc4)C(O)C(C)O3)Oc3ccc(cc3Cl)C2O)cc1 (stereo not shown) [Example 13, N^LEU -((p-METHOXYPHENYL)-THIOCARBAMOYL)-N^DISACC -(p-CHLOROBENZYL)A82846B] | 2 | 4 | 2 | 4 | ≤ 0.06 | 2 | 3.5 | > 128 | 8 | ≤ 0.06
CC(C)CC(C(=O)NC1C(=O)NC(CC(N)=O)C(=O)NC2C(=O)NC3C(=O)NC(C(=O)NC(C(=O)O)c4cc(O)cc(O)c4-c4cc3ccc4O)C(OC3CC(C)(N)C(O)C(C)O3)c3ccc(c(Cl)c3)Oc3cc2cc(c3OC2OC(CO)C(O)C(O)C2OC2CC(C)(N)C(O)C(C)O2)Oc2ccc(cc2Cl)C1O)N(C)C(=S)Nc1ccc([N+](=O)[O-])cc1 (stereo not shown) [Example 14, N^LEU -((p-NITROPHENYL)-THIOCARBAMOYL)A82846B] | 4 | 16 | 2 | 2 | 0.25 | 4 | 3.5 | > 128 | 32 | ≤ 0.06
CC(C)CC(C(=O)NC1C(=O)NC(CC(N)=O)C(=O)NC2C(=O)NC3C(=O)NC(C(=O)NC(C(=O)O)c4cc(O)cc(O)c4-c4cc3ccc4O)C(OC3CC(C)(N)C(O)C(C)O3)c3ccc(c(Cl)c3)Oc3cc2cc(c3OC2OC(CO)C(O)C(O)C2OC2CC(C)(N)C(O)C(C)O2)Oc2ccc(cc2Cl)C1O)N(C)C(=S)Nc1ccc(N(C)C)cc1 (stereo not shown) [Example 15, N^LEU -((p-(DIMETHYLAMINO)-PHENYL)THIOCARBAMOYL)A82846B] | 16 | > 64 | 4 | 8 | 0.25 | 16 | 24 | > 128 | > 64 | 0.25
CC(C)CC(C(=O)NC1C(=O)NC(CC(N)=O)C(=O)NC2C(=O)NC3C(=O)NC(C(=O)NC(C(=O)O)c4cc(O)cc(O)c4-c4cc3ccc4O)C(OC3CC(C)(N)C(O)C(C)O3)c3ccc(c(Cl)c3)Oc3cc2cc(c3OC2OC(CO)C(O)C(O)C2OC2CC(C)(N)C(O)C(C)O2)Oc2ccc(cc2Cl)C1O)N(C)C(=S)Nc1ccc(OCc2ccccc2)cc1 (stereo not shown) [Example 16, N^LEU -((p-(BENZYLOXY)PHENYL)-THIOCARBAMOYL)A82846B] | 4 | 8 | 0.5 | 1 | 0.125 | 1 | 7 | > 128 | 64 | ≤ 0.06
CCCCc1ccc(NC(=S)N(C)C(CC(C)C)C(=O)NC2C(=O)NC(CC(N)=O)C(=O)NC3C(=O)NC4C(=O)NC(C(=O)NC(C(=O)O)c5cc(O)cc(O)c5-c5cc4ccc5O)C(OC4CC(C)(N)C(O)C(C)O4)c4ccc(c(Cl)c4)Oc4cc3cc(c4OC3OC(CO)C(O)C(O)C3OC3CC(C)(N)C(O)C(C)O3)Oc3ccc(cc3Cl)C2O)cc1 (stereo not shown) [Example 17, N^LEU -((p-n-BUTYLPHENYL)-THIOCARBAMOYL)A82846B] | 2 | 4 | 1 | 2 | ≤ 0.06 | 1 | 6.1 | > 128 | 32 | 0.25
CCCCc1ccc(NC(=S)N(C)C(CC(C)C)C(=O)NC2C(=O)NC(CC(N)=O)C(=O)NC3C(=O)NC4C(=O)NC(C(=O)NC(C(=O)O)c5cc(O)cc(O)c5-c5cc4ccc5O)C(OC4CC(C)(N)C(O)C(C)O4)c4ccc(c(Cl)c4)Oc4cc3cc(c4OC3OC(CO)C(O)C(O)C3OC3CC(C)(NCc4ccc(Oc5ccccc5)cc4)C(O)C(C)O3)Oc3ccc(cc3Cl)C2O)cc1 (stereo not shown) [Example 18, N^LEU -((p-n-BUTYLPHENYL)-THIOCARBAMOYL)-N^DISACC -(p-PHENOXYBENZYL)A82846B] | 2 | 2 | 2 | 2 | 2 | 2 | 1.7 | 4.7 | 2 | 0.25
